Biological target: Alpha-synuclein (Homo sapiens, UniProt P37840)

Kd: 3.8 nM
Structure (SMILES): OCCOC(=C\C=C1N(c2ccccc2)c2cc3ccccc3cc2N1c1ccccc1)/C=C/c1n(-c2ccccc2)c2cc3ccccc3cc2[n+]1-c1ccccc1

Source: BindingDB's records for PubMed 36966976 (Csir-Indian Institute of Chemical Technology (CSIR-IICT), 2023)
